{
  "source": "patent US20060234936A1",
  "about": "“Method for screening substances capable of inhibiting the hyperplasia of pancreatic cells and/or the hypersecretion of insulin by pancreatic cells” (Taisho Pharmaceutical Co., Ltd., priority 2005, published 2006)",
  "key": {"[1]": {"system": "INS-1 cells", "experiment": "Analysis of cell growth, [3H] thymidine incorporation in INS-1 cells", "type": "cell-based, rat", "procedure": "(§1) INS-1 cells (rat pancreatic β cell line) were cultured in an incubator at 5% CO2/95% air and 37° C. using an RMI 1640 medium (GIBCO) containing 10 mM HEPES, 10% FBS, 1 mM sodium pyruvate, 50 μM β-mercaptoethanol, 100 units/ml penicillin, and 100 μg/ml streptomycin. Subculturing was carried out every 7 days, using PBS containing 0.25% trypsin/0.02% EDTA\nThe cells were seeded on a 48-well plate at a concentration of 1×10^5 cells/well and were cultured for 48 hours. After washing the cells with PBS, the cells were cultured in an RPMI-1640 medium (test medium) for 12 to 15 hours which had been deprived of serum and to which 3 mM glucose and 0.1% BSA had been added. […] The cells were cultured in the media for 20 hours, and after further addition of [^3H] thymidine (Amersham) to the media in order to achieve a radioactivity of 1 μCi/well, the cells were cultured for additional 4 hours. After washing the cells with PBS twice followed by with 10% trichloroacetic acid (TCA) twice, the cells were fixed by TCA treatment for 30 minutes. The cells were solublized with 0.1 N NaOH and the radioactivity of each medium was measured with a liquid scintillation counter."}, "[2]": {"system": "Reg IIIβ", "experiment": "Real-time quantitative RT-PCR of Reg IIIβ mRNA in INS-1 cells treated with PACAP", "type": "cell-based, rat", "procedure": "as §1\nReal-time quantitative PCR was conducted under the conditions similarly to the mouse islet case. The expression level of the β-actin gene was analyzed as an internal standard in a similar manner. In PCR the primers having the following sequences were used."}, "[3]": {"system": "isolated islet", "conditions": "cited from earlier work"}, "[4]": {"system": "Reg IIIβ gene", "experiment": "Gene expression inhibition by siRNA, Reg IIIβ mRNA by real-time quantitative RT-PCR", "type": "cell-based, rat", "conditions": "INS-1 cells, siRNA 100 nM, 24 hours after introduction", "procedure": "(§2) INS-1 cells (rat pancreatic β cell line) were cultured in an incubator at 5% CO2/95% air and 37° C. using an RPMI 1640 medium (GIBCO) containing 10 mM HEPES, 10% FBS, 1 mM sodium pyruvate, and 50 μM β-mercaptoethanol. Subculturing was carried out every 5 days, using PBS containing 0.25% trypsin/0.02% EDTA.\n(§3) The cells were seeded on a 12-well plate (Iwaki Glass Co. Ltd.) at a concentration of 0.25×10^5 cells/cm^2 and were cultured for 48 hours. A cocktail of three types of siRNAs to the Reg IIIβ gene, individual siRNAs (three types), siRNA to Lamin (positive control; B-Bridge), and a cocktail of three types of non-specific siRNAs (negative control; B-Bridge) were diluted with Opti-MEM (GIBCO) so as to produce the final concentrations of 100 nM. The respective RNAs were introduced into the cells using Lipofectamine 2000 (Invitrogen Corporation) and the cells were cultured for 24 hours. After washing the cells with PBS twice, total RNAs were prepared using a SV Total Isolation Kit (Promega Corporation) and cDNA pools were then prepared using reverse transcriptase M-MLV (Invitrogen Corporation). Real-time quantitative PCR was conducted under the conditions similarly to the mouse islet case. The expression level of the rat β-actin gene was analyzed as an internal standard in a similar manner. The sequences of the siRNAs and the sequences of specific primers for PCR are shown below."}, "[5]": {"system": "Lamin gene", "experiment": "Gene expression inhibition by siRNA, Lamin mRNA by real-time quantitative RT-PCR", "type": "cell-based, rat", "conditions": "INS-1 cells, siRNA 100 nM, 24 hours after introduction", "procedure": "as §2, §3"}},
  "data": [
    {"molecule": "CC[C@H](C)[C@H](NC(=O)CNC(=O)[C@H](CC(=O)O)NC(=O)[C@H](CO)NC(=O)[C@@H](N)Cc1c[nH]cn1)C(=O)N[C@@H](Cc1ccccc1)C(=O)N[C@H](C(=O)N[C@@H](CC(=O)O)C(=O)N[C@@H](CO)C(=O)N[C@@H](Cc1ccc(O)cc1)C(=O)N[C@@H](CO)C(=O)N[C@@H](CCCNC(=N)N)C(=O)N[C@@H](Cc1ccc(O)cc1)C(=O)N[C@@H](CCCNC(=N)N)C(=O)N[C@@H](CCCCN)C(=O)N[C@@H](CCC(N)=O)C(=O)N[C@@H](CCSC)C(=O)N[C@@H](C)C(=O)N[C@H](C(=O)N[C@@H](CCCCN)C(=O)N[C@@H](CCCCN)C(=O)N[C@@H](Cc1ccc(O)cc1)C(=O)N[C@@H](CC(C)C)C(=O)N[C@@H](C)C(=O)N[C@@H](C)C(=O)N[C@H](C(=O)N[C@@H](CC(C)C)C(=O)NCC(=O)N[C@@H](CCCCN)C(=O)N[C@@H](CCCNC(=N)N)C(=O)N[C@@H](Cc1ccc(O)cc1)C(=O)N[C@@H](CCCCN)C(=O)N[C@@H](CCC(N)=O)C(=O)N[C@@H](CCCNC(=N)N)C(=O)N[C@H](C(=O)N[C@@H](CCCCN)C(=O)N[C@@H](CC(N)=O)C(=O)N[C@@H](CCCCN)C(N)=O)C(C)C)C(C)C)C(C)C)[C@@H](C)O", "note": "[PACAP]", "values": [
      {"measurement": "effect on cell growth", "setting": "[1]; 3 mM glucose", "value": "No effects"},
      {"measurement": "effect on cell growth", "setting": "[1]; 11 mM glucose", "value": "No effects"},
      {"measurement": "cell growth inhibition, dependence on PACAP concentration", "setting": "[1]; high glucose concentration, varying PACAP concentration", "value": "inhibited the cell growth of INS-1 cells in a concentration-dependent manner"},
      {"measurement": "change in mRNA expression of Reg IIIβ", "setting": "[2]; 3 mM glucose", "value": "no change in expression"},
      {"measurement": "change in mRNA expression of Reg IIIβ", "setting": "[2]; 11 mM glucose", "value": "no change in expression"},
      {"measurement": "change in mRNA expression of Reg IIIβ", "setting": "[2]; high glucose concentration (25 mM), after 4 hours", "value": "expression-induction"},
      {"measurement": "change in mRNA expression of Reg IIIβ", "setting": "[2]; high glucose concentration (25 mM), until after 48 hours", "value": "continuous increase in the expression"},
      {"measurement": "level at which glucose-inducible insulin secretion is promoted", "setting": "[3]", "value": "10^−14 M"}
    ]},
    {"molecule": "(3): double-stranded siRNA to Reg IIIβ, SEQ ID NO:20/21 (chain 1 GGAAACAGCUACCAAUAUATT; chain 2 UAUAUUGGUAGCUGUUUCCTT; chemistry not given here)", "values": [
      {"measurement": "suppression of expression of Reg IIIβ gene vs negative control", "setting": "[4]", "value": "about 60%"}
    ]},
    {"molecule": "Lamin siRNA: double-stranded siRNA to Lamin A/C, positive control (B-Bridge), SEQ ID NO:14/15 (chain 1 GGUGGUGACGAUCUGGGCUTT; chain 2 AGCCCAGAUCGUCACCACCTT; chemistry not given here)", "values": [
      {"measurement": "suppression of expression of Lamin gene vs negative control", "setting": "[5]", "value": "about 65%"}
    ]}
  ]
}
